Results on 16 molecules are retold here after PubChem BioAssay (NCI).

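Compound exposure: 48 hours, 5 concentrations, 96-well plates. TGI is the concentration that stops growth completely.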

Among the test systems are COLO 205 colon; HT29 colon; LOX IMVI melanoma; NCI-H23 lung; SF-539 CNS; TK-10 renal; U251 CNS; UACC-62 melanoma; BT-549 breast; PC-3 prostate.
Common to all, as to test: inhibition of tumour cell growth, NCI panel, 48 h

Regarding `COc1ccc(N2C(=O)C3c4[nH]c5ccccc5c4C4CCCCC4C3C2=O)cc1` (stereo not drawn), the TGI was above 100 µM with COLO 205 colon; above 100 µM in the experiment on HT29 colon; above 100 µM with LOX IMVI melanoma; above 100 µM in the experiment on NCI-H23 lung; 32.8 µM in the experiment with SF-539 CNS; 58.8 µM in the experiment on TK-10 renal. The TGI in the experiment on U251 CNS came to 38.6 µM; with UACC-62 melanoma it was 33.3 µM.
As to `O=S1Nc2c(Cl)cc(Cl)c(Cl)c2S1` (stereo not drawn), the TGI in the experiment with COLO 205 colon, with HT29 colon, in the experiment on LOX IMVI melanoma, with NCI-H23 lung, with SF-539 CNS and in the experiment on TK-10 renal was above 100 µM each time. The TGI with U251 CNS and with UACC-62 melanoma was above 100 µM throughout.
Consider `N#CCC(=O)N1CCCCCCC1`, for which the TGI was 28.9 µM in the experiment on COLO 205 colon; above 100 µM in the experiment on HT29 colon; above 100 µM in the experiment on LOX IMVI melanoma; above 100 µM in the experiment on NCI-H23 lung; above 100 µM in the experiment with SF-539 CNS; above 100 µM in the experiment with TK-10 renal. Besides, the TGI with U251 CNS and in the experiment on UACC-62 melanoma was above 100 µM in each case.
With `CCN(CC)CC(=N)N(CC)c1ccccc1`, the TGI in the experiment with COLO 205 colon, in the experiment on LOX IMVI melanoma, with NCI-H23 lung, in the experiment with SF-539 CNS, with TK-10 renal and in the experiment on U251 CNS was above 100 µM throughout. The molecule further had a TGI in the experiment on UACC-62 melanoma above 100 µM.
For the molecule `C=CCn1c(-c2ccc([N+](=O)[O-])cc2)csc1=N`, the TGI with BT-549 breast was above 100 µM; in the experiment on COLO 205 colon it was above 100 µM; in the experiment on HT29 colon, above 100 µM; with LOX IMVI melanoma it was 70.5 µM; with NCI-H23 lung, above 100 µM; with PC-3 prostate it was above 100 µM. The TGI with TK-10 renal, in the experiment with U251 CNS and in the experiment on UACC-62 melanoma was above 100 µM throughout.
For the molecule `OC(CC(O)(C(F)(F)F)C(F)(F)F)c1ccc(C(O)CC(O)(C(F)(F)F)C(F)(F)F)cc1` (stereo not drawn), the TGI with HT29 colon was 25.1 µM; with LOX IMVI melanoma, 30.7 µM; with NCI-H23 lung, 26.7 µM; in the experiment on PC-3 prostate, 32.5 µM; with SF-539 CNS it was 29.4 µM; in the experiment on U251 CNS, 31.1 µM. Further, the TGI in the experiment on UACC-62 melanoma came to 25.2 µM.
In the case of `O=C(O)CCC(NC(=O)c1ccc(Nc2nc3cc(C(F)(F)F)ccc3nc2C(=O)O)cc1)C(=O)O` (stereo not drawn), the TGI in the experiment on COLO 205 colon, in the experiment on HT29 colon, with LOX IMVI melanoma, with NCI-H23 lung, in the experiment with PC-3 prostate and in the experiment on SF-539 CNS was above 100 µM in each case. The TGI with TK-10 renal, in the experiment with U251 CNS and in the experiment with UACC-62 melanoma was above 100 µM in each case.
As for `Cn1c(=O)c2/c(n(C)c1=O)=N\C=c1\c(=O)n(C)c(=O)n(C)\c1=N\C=2`, the TGI with COLO 205 colon, with HT29 colon, in the experiment on NCI-H23 lung, in the experiment with SF-539 CNS, with TK-10 renal and in the experiment with U251 CNS was above 100 µM each time. Moreover, in the experiment on UACC-62 melanoma, the TGI is above 100 µM.
In the case of `Cc1sc2nc3n(c(=O)c2c1C)N=CN(c1ccc(F)cc1)C3`, the TGI with BT-549 breast, with COLO 205 colon, in the experiment with HT29 colon, in the experiment with LOX IMVI melanoma, in the experiment with NCI-H23 lung and with PC-3 prostate was above 100 µM each time. In addition, the TGI in the experiment on TK-10 renal, with U251 CNS and with UACC-62 melanoma was above 100 µM in each case.
Turning to `Cc1ccc(NC(=O)CSC(N)=O)cc1C`, the TGI in the experiment with COLO 205 colon, with HT29 colon, in the experiment on LOX IMVI melanoma, with NCI-H23 lung, with PC-3 prostate and in the experiment with SF-539 CNS was above 100 µM throughout. Also, the TGI in the experiment on TK-10 renal, in the experiment with U251 CNS and in the experiment on UACC-62 melanoma was above 100 µM throughout.
For the molecule `Cc1ccc(N=C2C(=Nc3ccc(C)cc3)N(c3ccc(C)cc3)C(=S)N2C(=O)c2ccccc2)cc1`, the TGI in the experiment on BT-549 breast, in the experiment on COLO 205 colon, with HT29 colon, with NCI-H23 lung, with PC-3 prostate and with SF-539 CNS was above 100 µM in each case. For the same molecule, the TGI in the experiment with TK-10 renal, in the experiment on U251 CNS and in the experiment on UACC-62 melanoma was above 100 µM in each case.
In the case of `CCOC(=O)c1c(-c2cccc3ccccc23)c(C#N)c(=S)n(C2OC(COC(C)=O)C(OC(C)=O)C(OC(C)=O)C2OC(C)=O)c1C` (stereo not drawn), the TGI in the experiment with COLO 205 colon, in the experiment on HT29 colon, in the experiment on LOX IMVI melanoma, with NCI-H23 lung, in the experiment with PC-3 prostate and in the experiment on SF-539 CNS was above 100 µM in each case. Moreover, the TGI in the experiment with TK-10 renal, with U251 CNS and in the experiment with UACC-62 melanoma was above 100 µM in each case.
Consider `O=C1CSc2cc([N+](=O)[O-])ccc2N1`, for which the TGI with COLO 205 colon, in the experiment with HT29 colon, in the experiment with LOX IMVI melanoma, with NCI-H23 lung, in the experiment on SF-539 CNS and in the experiment with TK-10 renal was above 100 µM throughout. Besides, the TGI with U251 CNS and with UACC-62 melanoma was above 100 µM throughout.
Turning to `CC1(C)N=C(c2ccccn2)C(c2ccccn2)=NC1(C)C`, the TGI in the experiment on COLO 205 colon, in the experiment with HT29 colon, in the experiment with LOX IMVI melanoma, with SF-539 CNS, with U251 CNS and with UACC-62 melanoma was above 100 µM each time.
As to `C=C(c1ccccc1)c1ccccc1-c1cc(-c2ccccc2)cc(-c2ccccc2)n1`, the TGI in the experiment on HT29 colon, in the experiment with LOX IMVI melanoma, in the experiment with NCI-H23 lung, in the experiment on PC-3 prostate, in the experiment with SF-539 CNS and in the experiment on TK-10 renal was above 100 µM each time. Further, the TGI in the experiment with U251 CNS and in the experiment with UACC-62 melanoma was above 100 µM throughout.
Regarding `NC(CSSCC(N)Cc1ccccc1)Cc1ccccc1` (stereo not drawn), the TGI was above 100 µM in the experiment with COLO 205 colon; above 100 µM in the experiment on HT29 colon; 84.4 µM with LOX IMVI melanoma; above 100 µM with NCI-H23 lung; above 100 µM in the experiment on TK-10 renal; above 100 µM in the experiment on U251 CNS. In the experiment with UACC-62 melanoma, this molecule displayed a TGI of 44.9 µM.
